Experiments:
CDK2 [1] = biological target: T1, CDK2 (Homo sapiens, UniProt P24941); experiment: High-throughput HTRF measurement of cellular endogenous CDK2 level (degradation, DC50/Dmax) in OVCAR3 cells, 6 h; assay type: cell-based; settings: 6 h compound treatment, HTRF total CDK2, read-out: DC50_OVCAR3_6h
T1 construct: High-Throughput Measurement of Cellular Endogenous CDK2; endogenous in cells; host or cells: OVCAR3
Summary of the method: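 DC50 and Dmax were derived by four-parameter logistic fit of the […] TR-FRET ratio, scaled between DMSO (0% degradation) and lysis buffer (100%) controls. The ratio came from an HTRF total-CDK2 sandwich immunoassay on lysates of OVCAR3 cells given 0.03–1,000 nM compound for 6 hours.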

CDK2 [2] = biological target: T1, CDK2; experiment: Inhibition of CDK2: phospho-Rb (S807/811) HTRF measurement in OVCAR3 cells, 24 h; assay type: cell-based; settings: 24 h compound treatment, read-out: pRB_OVCAR3_24h
Summary of the method: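 IC50 came from a four-parameter fit of DMSO-normalized TR-FRET ratios (665/620 nm) reporting phospho-Rb S807/811. Lysates were taken from OVCAR3 cultures treated 24 h with compound (0.3 to 10,000 nM) and incubated 4 h at room temperature with the antibody pair.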

## Cn1nc(N2CCC(=O)NC2=O)c2ccc(C3CCN(CC4CCN(c5cccc(S(=O)(=O)N6CCC(Nc7ncc(Cl)cn7)CC6)c5)CC4)CC3)c(F)c21 [Example 95, 1-(6-(1-((1-(3-((4-((5-chloropyrimidin-2-yl)amino)piperidin-1-yl)sulfonyl)phenyl)-piperidin-4-yl)methyl)piperidin-4-yl)-7-fluoro-1-methyl-1H-indazol-3-yl)dihydropyrimidine-2,4(1H,3H)-dione]
CDK2 [1]
  DC50: 1 to 10 nM
CDK2 [2]
  IC50: 1 to 100 nM

## Cn1nc(N2CCC(=O)NC2=O)c2cc(F)c(C3CCN(CC4CCN(c5cccc(S(=O)(=O)N6CCC(Nc7ncc(Cl)cn7)CC6)c5)CC4)CC3)cc21 [Example 99, 1-(6-(1-((1-(3-((4-((5-chloropyrimidin-2-yl)amino)piperidin-1-yl)sulfonyl)phenyl)-piperidin-4-yl)methyl)piperidin-4-yl)-5-fluoro-1-methyl-1H-indazol-3-yl)dihydropyrimidine-2,4(1H,3H)-dione]
CDK2 [1]
  DC50: 10 to 100 nM
CDK2 [2]
  IC50: 1 to 100 nM

## Cn1nc(N2CCC(=O)NC2=O)c2cc(F)c(C3CCN(CC4CCN(c5cccc(S(=O)(=O)N6CCC(Nc7ncc(C(F)(F)F)cn7)CC6)c5)CC4)CC3)cc21 [Example 100, 1-(5-fluoro-1-methyl-6-(1-((1-(3-((4-((5-(trifluoromethyl)pyrimidin-2-yl)amino)-piperidin-1-yl)sulfonyl)phenyl)piperidin-4-yl)methyl)piperidin-4-yl)-1H-indazol-3-yl)dihydropyrimidine-2,4(1H,3H)-dione]
CDK2 [1]
  DC50: 10 to 100 nM
CDK2 [2]
  IC50: 1 to 100 nM

## O=C1CCC(N2Cc3cc(N4CCC(N5CC(Oc6cccc(S(=O)(=O)N7CCC(Nc8ncc(Cl)cn8)CC7)c6)C5)CC4)ccc3C2=O)C(=O)N1 (stereo not drawn) [Example 105, 3-(5-(4-(3-(3-((4-((5-chloropyrimidin-2-yl)amino)piperidin-1-yl)sulfonyl)phenoxy)-azetidin-1-yl)piperidin-1-yl)-1-oxoisoindolin-2-yl)piperidine-2,6-dione]
CDK2 [1]
  DC50: 10 to 100 nM
CDK2 [2]
  IC50: 100 to 500 nM

## Cn1c(=O)n(C2CCC(=O)NC2=O)c2cccc(C3CCN(CC4CCN(c5cccc(S(=O)(=O)N6CCC(Nc7ncc(C(F)(F)F)cn7)CC6)c5)CC4)CC3)c21 (stereo not drawn) [Example 107, 3-(3-methyl-2-oxo-4-(1-((1-(3-((4-((5-(trifluoromethyl)pyrimidin-2-yl)amino)-piperidin-1-yl)sulfonyl)phenyl)piperidin-4-yl)methyl)piperidin-4-yl)-2,3-dihydro-1H-benzo[d]imidazol-1-yl)piperidine-2,6-dione]
CDK2 [1]
  DC50: 1 to 10 nM
CDK2 [2]
  IC50: 1 to 100 nM

## Cn1nc(N2CCC(=O)NC2=O)c2ccc(C3CCN(CC4CN(c5cccc(S(=O)(=O)N6CCC(Nc7ncc(C(F)(F)F)cn7)CC6)c5)C4)CC3)cc21 [Example 108, 1-(1-methyl-6-(1-((1-(3-((4-((5-(trifluoromethyl)pyrimidin-2-yl)amino)-piperidin-1-yl)sulfonyl)phenyl)azetidin-3-yl)methyl)piperidin-4-yl)-1H-indazol-3-yl)dihydropyrimidine-2,4(1H,3H)-dione]
CDK2 [1]
  DC50: 10 to 100 nM
CDK2 [2]
  IC50: 1 to 100 nM

## Cn1nc(N2CCC(=O)NC2=O)c2ccc(C3CCN(CC4CCN(c5cccc(S(=O)(=O)N6CCC(Nc7ncc(OC(F)(F)F)cn7)CC6)c5)CC4)CC3)cc21 [Example 115, 1-(1-methyl-6-(1-((1-(3-((4-((5-(trifluoro-methoxy)pyrimidin-2-yl)amino)piperidin-1-yl)sulfonyl)phenyl)piperidin-4-yl)methyl)piperidin-4-yl)-1H-indazol-3-yl)dihydropyrimidine-2,4(1H,3H)-dione]
CDK2 [1]
  DC50: 10 to 100 nM
CDK2 [2]
  IC50: 1 to 100 nM

## C[C@@H]1CN(CC2CCN(c3cccc(S(=O)(=O)N4CCC(Nc5ncc(Cl)cn5)CC4)c3)CC2)CCN1c1ccc2c(N3CCC(=O)NC3=O)nn(C)c2c1 [Example 116, (R)-1-(6-(4-((1-(3-((4-((5-chloropyrimidin-2-yl)amino)piperidin-1-yl)sulfonyl)phenyl)-piperidin-4-yl)methyl)-2-methylpiperazin-1-yl)-1-methyl-1H-indazol-3-yl)dihydropyrimidine-2,4(1H,3H)-dione]
CDK2 [1]
  DC50: 10 to 100 nM
CDK2 [2]
  IC50: 1 to 100 nM

## O=C1CCC(N2Cc3cc(C4CCN(CC5CCN(c6cccc(S(=O)(=O)N7CCC(Nc8ncc(C(F)(F)F)cn8)CC7)c6)CC5)CC4)c(F)cc3C2=O)C(=O)N1 (stereo not drawn) [Example 119, 3-(6-fluoro-1-oxo-5-(1-((1-(3-((4-((5-(trifluoromethyl)pyrimidin-2-yl)amino)-piperidin-1-yl)sulfonyl)phenyl)piperidin-4-yl)methyl)piperidin-4-yl)isoindolin-2-yl)piperidine-2,6-dione]
CDK2 [1]
  DC50: 1 to 10 nM
CDK2 [2]
  IC50: 1 to 100 nM

## Cn1nc(N2CCC(=O)NC2=O)c2ccc(C3CCN(CC4CCN(c5cc(F)cc(S(=O)(=O)N6CCC(Nc7ncc(Cl)cn7)CC6)c5)CC4)CC3)cc21 [Example 147, 1-(6-(1-((1-(3-((4-((5-chloropyrimidin-2-yl)amino)piperidin-1-yl)sulfonyl)-5-fluorophenyl)piperidin-4-yl)methyl)piperidin-4-yl)-1-methyl-1H-indazol-3-yl)dihydropyrimidine-2,4(1H,3H)-dione]
CDK2 [1]
  DC50: 1 to 10 nM
CDK2 [2]
  IC50: 1 to 100 nM

## Cn1nc(N2CCC(=O)NC2=O)c2ccc(C3CCN(CC4CCN(c5cc(S(=O)(=O)N6CCC(Nc7ncc(Cl)cn7)CC6)ccc5C#N)CC4)CC3)cc21 [Example 148, 4-((4-((5-chloropyrimidin-2-yl)amino)piperidin-1-yl)sulfonyl)-2-(4-((4-(3-(2,4-dioxotetrahydropyrimidin-1(2H)-yl)-1-methyl-1H-indazol-6-yl)piperidin-1-yl)methyl)piperidin-1-yl)benzonitrile]
CDK2 [1]
  DC50: 10 to 100 nM
CDK2 [2]
  IC50: 1 to 100 nM

## Cn1nc(N2CCC(=O)NC2=O)c2ccc(C3CCN(CC4CCN(c5cc(F)cc(S(=O)(=O)N6CCC(Nc7ncc(C(F)(F)F)cn7)CC6)c5)CC4)CC3)cc21 [Example 149, 1-(6-(1-((1-(3-fluoro-5-((4-((5-(trifluoromethyl)pyrimidin-2-yl)amino)piperidin-1-yl)sulfonyl)phenyl)piperidin-4-yl)methyl)piperidin-4-yl)-1-methyl-1H-indazol-3-yl)dihydropyrimidine-2,4(1H,3H)-dione]
CDK2 [1]
  DC50: 1 to 10 nM
CDK2 [2]
  IC50: 1 to 100 nM

## Cn1nc(N2CCC(=O)NC2=O)c2ccc(C3CCN(CC4CCN(c5cc(S(=O)(=O)N6CCC(Nc7ncc(Cl)cn7)CC6)ccc5C#N)CC4)CC3)c(F)c21 [Example 150, 4-((4-((5-chloropyrimidin-2-yl)amino)piperidin-1-yl)sulfonyl)-2-(4-((4-(3-(2,4-dioxotetrahydropyrimidin-1(2H)-yl)-7-fluoro-1-methyl-1H-indazol-6-yl)piperidin-1-yl)methyl)piperidin-1-yl)benzonitrile]
CDK2 [1]
  DC50: 10 to 100 nM
CDK2 [2]
  IC50: 1 to 100 nM

## Cn1c(=O)n(C2CCC(=O)NC2=O)c2cccc(C3CCN(CC4CCN(c5cc(S(=O)(=O)N6CCC(Nc7ncc(Cl)cn7)CC6)ccc5C#N)CC4)CC3)c21 (stereo not drawn) [Example 151, 4-((4-((5-chloropyrimidin-2-yl)amino)piperidin-1-yl)sulfonyl)-2-(4-((4-(1-(2,6-dioxopiperidin-3-yl)-3-methyl-2-oxo-2,3-dihydro-1H-benzo[d]imidazol-4-yl)piperidin-1-yl)methyl)piperidin-1-yl)benzonitrile]
CDK2 [1]
  DC50: 10 to 100 nM
CDK2 [2]
  IC50: 1 to 100 nM

## Cn1nc(N2CCC(=O)NC2=O)c2ccc(C3CCN(CC4CCN(c5cc(S(=O)(=O)N6CCC(Nc7ncc(C(F)(F)F)cn7)CC6)ccc5C#N)CC4)CC3)cc21 [Example 152, 2-(4-((4-(3-(2,4-dioxotetrahydropyrimidin-1(2H)-yl)-1-methyl-1H-indazol-6-yl)piperidin-1-yl)methyl)piperidin-1-yl)-4-((4-((5-(trifluoromethyl)pyrimidin-2-yl)amino)piperidin-1-yl)sulfonyl)benzonitrile]
CDK2 [1]
  DC50: 1 to 10 nM
CDK2 [2]
  IC50: 1 to 100 nM

## Cn1nc(N2CCC(=O)NC2=O)c2cc(F)c(C3CCN(CC4CCN(c5cc(S(=O)(=O)N6CCC(Nc7ncc(Cl)cn7)CC6)ccc5C#N)CC4)CC3)cc21 [Example 153, 4-((4-((5-chloropyrimidin-2-yl)amino)piperidin-1-yl)sulfonyl)-2-(4-((4-(3-(2,4-dioxotetrahydropyrimidin-1(2H)-yl)-5-fluoro-1-methyl-1H-indazol-6-yl)piperidin-1-yl)methyl)piperidin-1-yl)benzonitrile]
CDK2 [1]
  DC50: 10 to 100 nM
CDK2 [2]
  IC50: 1 to 100 nM

## Cn1nc(N2CCC(=O)NC2=O)c2ccc(C3CCN(CC4(O)CCN(c5cccc(S(=O)(=O)N6CCC(Nc7ncc(Cl)cn7)CC6)c5)CC4)CC3)cc21 [Example 162, 1-(6-(1-((1-(3-((4-((5-chloropyrimidin-2-yl)amino)piperidin-1-yl)sulfonyl)phenyl)-4-hydroxypiperidin-4-yl)methyl)piperidin-4-yl)-1-methyl-1H-indazol-3-yl)dihydropyrimidine-2,4(1H,3H)-dione]
CDK2 [1]
  DC50: 1 to 10 nM
CDK2 [2]
  IC50: 1 to 100 nM

## Cn1nc(N2CCC(=O)NC2=O)c2ccc(C3CCN(CC4CCN(c5ccc(S(=O)(=O)N6CCC(Nc7ncc(C(F)(F)F)cn7)CC6)cc5)CC4)CC3)cc21 [Example 165, 1-(1-methyl-6-(1-((1-(4-((4-((5-(trifluoromethyl)pyrimidin-2-yl)amino)piperidin-1-yl)sulfonyl)phenyl)piperidin-4-yl)methyl)piperidin-4-yl)-1H-indazol-3-yl)dihydropyrimidine-2,4(1H,3H)-dione]
CDK2 [1]
  DC50: 10 to 100 nM
CDK2 [2]
  IC50: 1 to 100 nM

From US20260167623A1 (NIKANG THERAPEUTICS, INC., priority 2022, published 2026)
